Assay results from patent US20160081978A1, “PHARMACEUTICAL COMPOSITION CONTAINING LIRIODENDRON TULIPIFERA L. EXTRACT FOR TREATING CHRONIC MYELOGENOUS LEUKEMIA” (CHO DANG PHARM. CO., LTD., priority 2013, published 2016).

Key:
Experiment in all cases: XTT cell viability assay, inhibition of multiplication of leukemia cell line
Assay type in all cases: cell-based
[1] = test system: Ba/F3 (BCR/ABL-T315I) cell line
Source text: For measuring the cell viability indicating the inhibition of multiplication, in vitro XTT assay has been employed. […] Finally, the cell viability has been measured using ELISA through the absorbance at 620 nm, 540 nm (FIG. 1).

Ba/F3(BCR/ABL) cell line = details: 1 mg/ml of CD-200, 1 μM of CD-EPT, 48 hours
Method: (§1) For measuring the cell viability indicating the inhibition of multiplication, in vitro XTT assay has been employed. […] To find out the selective inhibition of T315I enzyme variant from BCR-ABL fusion gene, the cell lines have been incubated for 48 hours at 37° C. After incubation, the sample has been treated with XTT formazan (WEL GENE) for 4 hours at 37° C. Finally, the cell viability has been measured using ELISA through the absorbance at 620 nm, 540 nm (FIG. 1).

Ba/F3 mother cell line = details: 1 mg/ml of CD-200, 1 μM of CD-EPT, 48 hours
Method: as §1

With `C=C1C(=O)O[C@@H]2/C=C(\C)CC/C=C(\C)C[C@@H](OC(C)=O)[C@@H]12` [CD-EPT, epi-tulipinolide] the “inhibition of cell growth compared to Imatinib” value ([1]; 1 μM of Imatinib, 1 mg/ml of CD-200, 1 μM of CD-EPT, Ba/F3 (BCR/ABL-T315I) cell line) was “effective inhibition of cell growth compared to Imatinib”, the “inhibition of cell growth (cell viability)” value (from here on “inhibition … (cell viability)”) ([1]; 1 mg/ml of CD-200, 1 μM of CD-EPT, 48 hours, XTT, Ba/F3 (BCR/ABL-T315I) cell line) was “effectively inhibit the cell growth” and the IC50 ([1]; Ba/F3 (BCR/ABL-T315I) mutant, XTT, 48 hours) was 800 nM. The “effective inhibition capability compared to Imatinib” value ([1]; Ba/F3 (BCR/ABL-T315I) mutant, from IC50 values) was 5 times, the “inhibition … (cell viability)” value (Ba/F3(BCR/ABL) cell line) was “cannot significantly inhibit the cell growth” and the “inhibition … (cell viability)” value (Ba/F3 mother cell line) was “effectively inhibit the cell growth”.
